From patent publication US9993564B2, “Blood brain barrier shuttle” (Hoffmann-La Roche Inc., priority 2014, dated 2018)

Tests used:
[1] = in vivo phage display selection (4 rounds) with CSF sampling, sequencing of CSF recovered phage clones; design: species or system rat; settings: for Reads: CSF recovered phage clones after 4 rounds of in vivo selection in rats, 924 sequencing in total; for Frequency (%): frequency of each peptide related to the 924 total sequencing runs, CSF, after 4 rounds of in vivo selection in rats
[2] = tested on: brain blood vessels and capillaries; assay: immunohistochemistry of intravenously administered phage clones bound to brain vasculature; assay type: in vivo; settings: FIG. 5, no staining with empty phage
From the text: Specific phage clones were intravenously administered to allow targeting in vivo. Subsequently, immunohistochemistry was used to detect the phages specifically bound to the brain blood vessels and capillaries. […] ID. NO. 1, SEQ. ID. NO. 6 and SEQ. ID. NO.
ID. NO. 8 is linked to SA through an N-terminal biotin. […] ID. NO.

12 (ISNRSHKGLMVG; Brain targeting peptide) [compound 12]
Reads [1]: 16 | Frequency (%) [1]: 1.8%

4 (KVAWRVFSLFWK; Brain targeting peptide) [compound 4]
Reads [1]: 57 | Frequency (%) [1]: 6.1%

10 (YNQSLLQGYRYW; Brain targeting peptide) [compound 10]
Reads [1]: 21 | Frequency (%) [1]: 2.3%

14 (YAWGGGWVLQWF; Brain targeting peptide) [compound 14]
Reads [1]: 12 | Frequency (%) [1]: 1.6%

1 (LYVLHSRGLWGFKL; Brain targeting peptide) [compound 1]
Reads [1]: 147 | Frequency (%) [1]: 15.9%

24 (TWLFSLG; Brain targeting peptide) [compound 24]
Reads [1]: 4 | Frequency (%) [1]: 0.5%

20 (SGSGIGLDRWRV; Brain targeting peptide) [compound 20]
Reads [1]: 7 | Frequency (%) [1]: 0.7%

GRPQKINGARVC [SEQ. ID. NO. 6]
staining at brain capillaries in the cortex (immunohistochemistry) [2]: strong and specific staining

34 (AVES; Brain targeting peptide) [compound 34]
Reads [1]: 2 | Frequency (%) [1]: 0.2%

5 (SVHGV; Brain targeting peptide) [compound 5]
Reads [1]: 40 | Frequency (%) [1]: 6.1%

18 (DPQILMGVLRSIRGFGVKL; Brain targeting peptide) [compound 18]
Reads [1]: 9 | Frequency (%) [1]: 0.9%

13 (DAAESVLVGTVR; Brain targeting peptide) [compound 13]
Reads [1]: 15 | Frequency (%) [1]: 1.7%

15 (YSMVFVGIKL; Brain targeting peptide) [compound 15]
Reads [1]: 10 | Frequency (%) [1]: 1.2%

30 (ELVHA; Brain targeting peptide) [compound 30]
Reads [1]: 3 | Frequency (%) [1]: 0.3%

6 (GRPQKINGARVC; Brain targeting peptide) [compound 6]
Reads [1]: 29 | Frequency (%) [1]: 4.3%

21 (WGCNGTEWRGLLGIKL; Brain targeting peptide) [compound 21]
Reads [1]: 6 | Frequency (%) [1]: 0.7%

17 (RRPAPLIMFRMI; Brain targeting peptide) [compound 17]
Reads [1]: 9 | Frequency (%) [1]: 1.0%

33 (TAVFSALSMLRG; Brain targeting peptide) [compound 33]
Reads [1]: 2 | Frequency (%) [1]: 0.2%

31 (FLIQWGAVLSRG; Brain targeting peptide) [compound 31]
Reads [1]: 2 | Frequency (%) [1]: 0.3%

28 (GCASPASTSFHS; Brain targeting peptide) [compound 28]
Reads [1]: 3 | Frequency (%) [1]: 0.3%

19 (SRYSIGGNNGVT; Brain targeting peptide) [compound 19]
Reads [1]: 7 | Frequency (%) [1]: 0.9%

2 (LGSVS; Brain targeting peptide) [compound 2]
Reads [1]: 137 | Frequency (%) [1]: 14.8%

16 (DVAKVS; Brain targeting peptide) [compound 16]
Reads [1]: 10 | Frequency (%) [1]: 1.0%

11 (RSTASTSYPFFF; Brain targeting peptide) [compound 11]
Reads [1]: 17 | Frequency (%) [1]: 2.2%

26 (GWIPYDGGNRAR; Brain targeting peptide) [compound 26]
Reads [1]: 4 | Frequency (%) [1]: 0.4%

25 (LPGGSPGHILVC; Brain targeting peptide) [compound 25]
Reads [1]: 4 | Frequency (%) [1]: 0.4%

7 (MRWFFSHASQGR; Brain targeting peptide) [compound 7]
Reads [1]: 28 | Frequency (%) [1]: 3.1%

27 (STMRYVGVTCL; Brain targeting peptide) [compound 27]
Reads [1]: 3 | Frequency (%) [1]: 0.4%

29 (LRPRGAFQRRDFKL; Brain targeting peptide) [compound 29]
Reads [1]: 3 | Frequency (%) [1]: 0.3%

8 (RLSSVDSDLSGC; Brain targeting peptide) [compound 8]
Reads [1]: 26 | Frequency (%) [1]: 3.0%

9 (IGTLTT; Brain targeting peptide) [compound 9]
Reads [1]: 22 | Frequency (%) [1]: 2.8%

36 (LWVSVPRARIIQ; Brain targeting peptide) [compound 36]
Reads [1]: 2 | Frequency (%) [1]: 0.2%

32 (VRDWAYVYSTVL; Brain targeting peptide) [compound 32]
Reads [1]: 2 | Frequency (%) [1]: 0.2%

22 (NSHAMSC; Brain targeting peptide) [compound 22]
Reads [1]: 5 | Frequency (%) [1]: 0.6%

35 (RPRAQGAL; Brain targeting peptide) [compound 35]
Reads [1]: 2 | Frequency (%) [1]: 0.2%

23 (STVVCFKGVPTG; Brain targeting peptide) [compound 23]
Reads [1]: 5 | Frequency (%) [1]: 0.5%

3 (GFVRFRLSNTR; Brain targeting peptide) [compound 3]
Reads [1]: 115 | Frequency (%) [1]: 12.4%

LYVLHSRGLWGFKL (displayed on T7 phage; Brain targeting peptide) [SEQ. ID. NO. 1]
staining at brain capillaries in the cortex (immunohistochemistry) [2]: strong and specific staining
